These compounds were tested on IL-2 secretion (assay: Inhibition of IL-2 secretion in PHA-stimulated Jurkat T cells (ELISA)). Conditions: Homo sapiens, PHA stimulation, 20 to 24 hours, IL-2 by ELISA.
Type: cell-based
Protocol: The CRAC channel modulatory activity of the compounds were thus evaluated by measuring the secretion of IL-2 by antigen stimulated T-cells in vitro. Alternatively, such activity can also be evaluated by assay methods known to one skilled in the art.
Inhibition of IL-2 secretion: Jurkat T cells were seeded at a density of 0.5 to 1 million cells per well in RPMI medium. Test compounds from this invention were added to the cells at different concentrations. This was followed by the addition of PHA, a T cell mitogen after 10 minutes. The cells were then incubated for 20 to 24 hours in a CO2 incubator at 37° C. After incubation with the compounds, cells were centrifuged, the supernatant was collected and processed for ELISA to quantitate the amount of IL-2 secreted. A commercial ELISA kit (R&D Systems, Inc. Minneapolis, Minn., USA) was used to estimate the IL-2 concentrations. Amount of IL-2 secreted by cells stimulated with PHA was considered as a 100% maximal signal and the decrease in amount of IL-2 secreted by cells treated with the test compounds was expressed as percent inhibition of the maximal signal. The dose response data was analyzed using 4-parametric sigmoidal dose response (variable slope) curve—fit.

Going from Cn1nc(-c2cc(C(F)F)n(-c3ccc(NC(=O)c4c(F)cccc4F)cn3)n2)oc1=O [Example 11, N-(6-(5-(Difluoromethyl)-3-(4-methyl-5-oxo-4,5-dihydro-1,3,4-oxadiazol-2-yl)-1H-pyrazol-1-yl)pyridin-3-yl)-2,6-difluorobenzamide] to Cc1cc(-c2nn(C)c(=O)o2)nn1-c1ccc(NC(=O)c2c(F)cccc2F)cn1 [Example 31, 2,6-Difluoro-N-(6-(5-methyl-3-(4-methyl-5-oxo-4,5-dihydro-1,3,4-oxadiazol-2-yl)-1H-pyrazol-1-yl)pyridin-3-yl)benzamide], the IC50 rises from less than 100 nM to greater than 1000 nM. The first is the more potent here.

First: CC1(CO)CC(c2cc(C(F)(F)F)n(-c3ccc(NCc4c(F)cccc4F)cn3)n2)=NO1 (centres unmarked) [Example 33, (3-(1-(5-((2,6-Difluorobenzyl)amino)pyridin-2-yl)-5-(trifluoromethyl)-1H-pyrazol-3-yl)-5-methyl-4,5-dihydroisoxazol-5-yl)methanol]
Second: CC1(CO)CC(c2cc(C(F)(F)F)n(-c3ccc(NCc4c(F)cccc4Cl)cn3)n2)=NO1 (centres unmarked) [Example 34, (3-(1-(5-((2-Chloro-6-fluorobenzyl)amino)pyridin-2-yl)-5-(trifluoromethyl)-1H-pyrazol-3-yl)-5-methyl-4,5-dihydroisoxazol-5-yl)methanol]
The IC50 of the first is lower: less than 100 nM for the first, 100 to 1000 nM for the second.

Cn1nc(-c2cc(C(F)(F)F)n(-c3ccc(NCc4c(F)cccc4Cl)nc3)n2)oc1=O [Example 52] and Cn1nc(-c2cc(C(F)(F)F)n(-c3ccc(NC(=O)c4c(F)cccc4Cl)nc3)n2)oc1=O [Example 39, 2-Chloro-6-fluoro-N-(5-(3-(4-methyl-5-oxo-4,5-dihydro-1,3,4-oxadiazol-2-yl)-5-(trifluoromethyl)-1H-pyrazol-1-yl)pyridin-2-yl)benzamide] cannot be ordered by IC50: less than 100 nM for the first, less than 100 nM for the second.

Cn1c(-c2cc(C(F)(F)F)n(-c3ccc(NCc4c(F)cccc4F)cn3)n2)noc1=O [Example 26, 3-(1-(5-((2,6-Difluorobenzyl)amino)pyridin-2-yl)-5-(trifluoromethyl)-1H-pyrazol-3-yl)-4-methyl-1,2,4-oxadiazol-5(4H)-one] and CN1N=C(c2cc(C(F)(F)F)n(-c3ccc(NCc4c(F)cccc4F)cn3)n2)C(C)(C)C1=O [Example 24, 1′-(5-((2,6-Difluorobenzyl)amino)pyridin-2-yl)-1,4,4-trimethyl-5′-(trifluoromethyl)-1H,1′H-[3,3′-bipyrazol]-5(4H)-one] fall in the same range of IC50: 100 to 1000 nM for the first, 100 to 1000 nM for the second.

Cc1ccccc1C(=O)Nc1ccc(-n2nc(-c3nn(C)c(=O)o3)cc2C(F)(F)F)cn1 [Example 48, 2-Methyl-N-(5-(3-(4-methyl-5-oxo-4,5-dihydro-1,3,4-oxadiazol-2-yl)-5-(trifluoromethyl)-1H-pyrazol-1-yl)pyridin-2-yl)benzamide] and Cn1nc(-c2cc(C(F)(F)F)n(-c3ccc(NC(=O)c4cccc(F)c4F)nc3)n2)oc1=O [Example 42, 2,3-Difluoro-N-(5-(3-(4-methyl-5-oxo-4,5-dihydro-1,3,4-oxadiazol-2-yl)-5-(trifluoromethyl)-1H-pyrazol-1-yl)pyridin-2-yl)benzamide] cannot be ordered by IC50: less than 100 nM for the first, less than 100 nM for the second.

Compared with Cc1cccc(F)c1C(=O)Nc1ccc(-n2nc(C3=NN(C)C(=O)C3(C)C)cc2C(F)(F)F)nc1 [Example 18, 2-Fluoro-6-methyl-N-(6-(1′,4′,4′-trimethyl-5′-oxo-5-(trifluoromethyl)-4′,5′-dihydro-1H,1′H-[3,3′-bipyrazol]-1-yl)pyridin-3-yl)benzamide], CN1N=C(c2cc(C(F)(F)F)n(-c3ccc(NC(=O)c4c(F)cccc4F)cn3)n2)C(C)(C)C1=O [Example 16, 2,6-Difluoro-N-(6-(1′,4′,4′-trimethyl-5′-oxo-5-(trifluoromethyl)-4′,5′-dihydro-1H,1′H-[3,3′-bipyrazol]-1-yl)pyridin-3-yl)benzamide] is higher in IC50: less than 100 nM for the first, 100 to 1000 nM for the second.

Cn1nc(-c2cc(C(F)(F)F)n(-c3ccc(C(=O)Nc4c(F)cccc4Cl)cn3)n2)oc1=O [Example 55, N-(2-Chloro-6-fluorophenyl)-6-(3-(4-methyl-5-oxo-4,5-dihydro-1,3,4-oxadiazol-2-yl)-5-(trifluoromethyl)-1H-pyrazol-1-yl)nicotinamide] and Cn1nc(-c2cc(C(F)(F)F)n(-c3ccc(NC(=O)c4c(F)cccc4Cl)cn3)n2)oc1=O [Example 9, 2-Chloro-6-fluoro-N-(6-(3-(4-methyl-5-oxo-4,5-dihydro-1,3,4-oxadiazol-2-yl)-5-(trifluoromethyl)-1H-pyrazol-1-yl)pyridin-3-yl)benzamide] cannot be ordered by IC50: less than 100 nM for the first, less than 100 nM for the second.

Cn1nc(-c2cc(C3CC3)nn2-c2ccc(NC(=O)c3c(F)cccc3F)cn2)oc1=O [Example 30, N-(6-(3-Cyclopropyl 5-(4-methyl-5-oxo-4,5-dihydro-1,3,4-oxadiazol-2-yl)-1H-pyrazol-1-yl)pyridin-3-yl)-2,6-difluorobenzamide] and Cn1nc(-c2cc(C3CC3)nn2-c2ccc(NCc3c(F)cccc3F)cn2)oc1=O [Example 3, 5-(3-Cyclopropyl-1-(5-((2,6-difluorobenzyl)amino)pyridin-2-yl)-1H-pyrazol-5-yl)-3-methyl-1,3,4-oxadiazol-2(3H)-one] fall in the same range of IC50: 100 to 1000 nM for the first, 100 to 1000 nM for the second.

Cn1nc(-c2cc(C(F)(F)F)n(-c3ccc(NC(=O)c4ccc5ccccc5c4)nc3)n2)oc1=O [Example 50, N-(5-(3-(4-Methyl-5-oxo-4,5-dihydro-1,3,4-oxadiazol-2-yl)-5-(trifluoromethyl)-1H-pyrazol-1-yl)pyridin-2-yl)-2-naphthamide] and CCc1ccc(C(=O)Nc2ccc(-n3nc(-c4nn(C)c(=O)o4)cc3C(F)(F)F)cn2)cc1 [Example 49, 4-Ethyl-N-(5-(3-(4-methyl-5-oxo-4,5-dihydro-1,3,4-oxadiazol-2-yl)-5-(trifluoromethyl)-1H-pyrazol-1-yl)pyridin-2-yl)benzamide] fall in the same range of IC50: 100 to 1000 nM for the first, 100 to 1000 nM for the second.

Compared with CN1N=C(c2cc(C(F)(F)F)n(-c3ccc(NC(=O)c4c(F)cccc4Cl)cn3)n2)C(C)(C)C1=O [Example 17, 2-Chloro-6-fluoro-N-(6-(1′,4′,4′-trimethyl-5′-oxo-5-(trifluoromethyl)-4′,5′-dihydro-1H,1′H-[3,3′-bipyrazol]-1-yl)pyridin-3-yl)benzamide], CC1(C)ON=C(c2cc(C(F)(F)F)n(-c3ccc(NC(=O)c4c(F)cccc4Cl)cn3)n2)C1=O [Example 15, 2-Chloro-N-(6-(3-(5,5-dimethyl-4-oxo-4,5-dihydroisoxazol-3-yl)-5-(trifluoromethyl)-1H-pyrazol-1-yl)pyridin-3-yl)-6-fluorobenzamide] is lower in IC50: 100 to 1000 nM for the first, less than 100 nM for the second.

Cn1nc(-c2cc(C(F)F)n(-c3ccc(NCc4c(F)cccc4F)cn3)n2)oc1=O [Example 12, 5-(1-(5-((2,6-Difluorobenzyl)amino)pyridin-2-yl)-5-(difluoromethyl)-1H-pyrazol-3-yl)-3-methyl-1,3,4-oxadiazol-2(3H)-one] and Cn1nc(-c2cc(C(F)(F)F)n(-c3ccc(NC(=O)c4c(F)cccc4F)cn3)n2)oc1=O [Example 8, 2,6-Difluoro-N-(6-(3-(4-methyl-5-oxo-4,5-dihydro-1,3,4-oxadiazol-2-yl)-5-(trifluoromethyl)-1H-pyrazol-1-yl)pyridin-3-yl)benzamide] cannot be ordered by IC50: less than 100 nM for the first, less than 100 nM for the second.

Cn1nc(-c2cc(C(F)(F)F)n(-c3ccc(NC(=O)c4c(F)cccc4F)nc3)n2)oc1=O [Example 38, 2,6-Difluoro-N-(5-(3-(4-methyl-5-oxo-4,5-dihydro-1,3,4-oxadiazol-2-yl)-5-(trifluoromethyl)-1H-pyrazol-1-yl)pyridin-2-yl)benzamide] and Cn1nc(-c2cc(C(F)(F)F)n(-c3ccc(NC(=O)c4cc(F)c(F)cc4F)nc3)n2)oc1=O [Example 43, 2,4,5-Trifluoro-N-(5-(3-(4-methyl-5-oxo-4,5-dihydro-1,3,4-oxadiazol-2-yl)-5-(trifluoromethyl)-1H-pyrazol-1-yl)pyridin-2-yl)benzamide] cannot be ordered by IC50: less than 100 nM for the first, less than 100 nM for the second.

CC(=O)N1N=C(c2cc(C(F)(F)F)n(-c3ccc(NC(=O)c4c(F)cccc4F)cn3)n2)OC1(C)C [Example 20, N-(6-(3-(4-Acetyl-5,5-dimethyl-4,5-dihydro-1,3,4-oxadiazol-2-yl)-5-(trifluoromethyl)-1H-pyrazol-1-yl)pyridin-3-yl)-2,6-difluorobenzamide] and CC1(C)COC(c2cc(C(F)(F)F)n(-c3ccc(NC(=O)c4c(F)cccc4F)cn3)n2)=N1 [Example 21, N-(6-(3-(4,4-Dimethyl-4,5-dihydrooxazol-2-yl)-5-(trifluoromethyl)-1H-pyrazol-1-yl)pyridin-3-yl)-2,6-difluorobenzamide] fall in the same range of IC50: 100 to 1000 nM for the first, 100 to 1000 nM for the second.

Cc1cccc(F)c1C(=O)Nc1ccc(-n2nc(-c3nn(C)c(=O)o3)cc2C(F)(F)F)nc1 [Example 10, 2-Fluoro-6-methyl-N-(6-(3-(4-methyl-5-oxo-4,5-dihydro-1,3,4-oxadiazol-2-yl)-5-(trifluoromethyl)-1H-pyrazol-1-yl)pyridin-3-yl)benzamide] and CC1(CO)CC(c2cc(C(F)(F)F)n(-c3ccc(NC(=O)c4c(F)cccc4F)cn3)n2)=NO1 (centres unmarked) [Example 36, 2,6-Difluoro-N-(6-(3-(5-(hydroxymethyl)-5-methyl-4,5-dihydroisoxazol-3-yl)-5-(trifluoromethyl)-1H-pyrazol-1-yl)pyridin-3-yl)benzamide] cannot be ordered by IC50: less than 100 nM for the first, less than 100 nM for the second.

CC1(C)COC(c2cc(C(F)(F)F)n(-c3ccc(NCc4c(F)cccc4F)cn3)n2)=N1 [Example 28, N-(2,6-Difluorobenzyl)-6-(3-(4,4-dimethyl-4,5-dihydrooxazol-2-yl)-5-(trifluoromethyl)-1H-pyrazol-1-yl)pyridin-3-amine] gave an IC50 of 100 to 1000 nM.

Reference: patent US9409898B2, “Substituted pyrazole compounds as CRAC modulators” (LUPIN LIMITED, priority 2012, dated 2016)
